{"source": "patent US6310037A", "about": "“Method of controlling protozoan infections using syringomycin-family lipodepsipeptides” (Utah State University, priority 1999, dated 2001)", "key": {"[1]": {"tested_on": "C. parvum", "test": "C. parvum development in BFTE cell culture at pH 6.3", "type": "cell-based, C. parvum (bovine isolate)", "settings": "BFTE cells, pH 6.3, day 2 post inoculation", "procedure": "C. parvum (bovine isolate) oocysts used in this study were originally donated by the U.S. Department of Agriculture, Ames, Iowa. The oocysts were isolated from calf manure, preserved in 2.5% potassium dichromate at 4° C., and used within 3 months of purification. Oocysts were decontaminated by suspension in 20% (vol/vol) 1.05% sodium hypochlorite on ice for 20 minutes. Oocysts were then washed three times in Hanks' balanced salt solution (\"HBSS\") and once in RPMI 1640 (available from Sigma, St. Louis, Mo.). Release of sporozoites was achieved by incubating oocysts in an excystation solution consisting of 0.25% (wt/vol) trypsin (available from Sigma, St. Louis, Mo.) and 0.75% (wt/vol) taurodeoxycholic acid (available from Sigma) in HBSS. The resulting suspension was incubated at 37° C. for 45 minutes and microscopically observed to confirm sporozoite release. Sporozoites were completely separated from intact oocysts and oocyst walls by passage through sterile polycarbonate filters (3 micron pore size, available from Millipore Corp., Bedford, Mass.) twice prior to inoculation of bovine fallopian tube epithelial (\"BFTE\") cell monolayers.\nPrimary BFTE cell cultures were prepared from bovine fallopian tubes (FT). […]\nThe inhibitory effect of Syr-E on C. parvum development was monitored in BFTE cell culture at pH 6.3. […]"}, "[2]": {"tested_on": "L. donovani", "type": "cell-based", "settings": "pH 5.5, 72 hours", "procedure": "L. donovani parasites (WHO designation: MHOM/SD/62/1S-CL2D) used in this study were originally donated by the National Institutes of Health. These parasites were maintained as axenic amastigote-like forms by serial passage at 37°C. in a humid atmosphere containing 5% CO2 using a slightly modified version of the medium described by Joshi et al., Cloning and characterization of differentially expressed genes from in vitro-grown `amastigotes` of Leishmania donovani. Molecular and Biochemical Parasitology, 1993. 58: p. 345-354, the contents of which are incorporated herein by this reference.\nL. donovani amastigote-like forms were seeded at 10^6 cells/ml in 96-well flat-bottom plates (Costar) in the amastigote medium described above in the presence or absence of drugs. The final volume in each well was 60 μl. Wells containing control parasites included 1% DMSO, the maximum concentration of the vehicle found in drug-containing samples. Plates were incubated at 37° C. in a humid 5% CO2 atmosphere for 72 hours, then 12 μl of the aqueous CellTiter solution (Promega) was added to each well according to the instructions of the manufacturer. Plates were returned to the 37° C. incubator for a further 4-5 hours, then the absorbance of each well was measured at 490 nm using a SpectraMax Plus plate reader (Molecular Devices, Sunnyvale, Calif.). IC50 values for each of the drugs (the concentration of drug that inhibited the growth of parasites by 50% compared to controls) was determined with the aid of the program SoftMax Pro (Molecular Devices). The log dose response equation y=((a-d)/(1+(x/c)^b))+d was used to calculate IC50 values, where x=drug concentration, y=absorbance at 490 nm, a=upper asymptote, b=slope, c=IC50, and d=lower asymptote.\nActivity of Syr-E against L. donovani was determined using a cell-free amastigote culture technique that included the uptake of a vital dye (Cell Titer solution, Promega Corporation) as a measure of parasite viability at 72 hours post inoculation. OD values for serial dilutions of Syr-E were transformed as described for the malaria screen (Example VII) to determine IC50 values against Leishmania. The amastigote assay was performed at a pH of 5.5, which is favorable for Syr-E activity."}}, "note": "Read-outs that look alike come from different tables or passages of the source. Where a SMILES comes first, the peptide text is derived from it. Bridges are numbered along the chain shown (N, C = ends). [ ]: non-standard residue; d: D form. The star is where a group is joined. Asp(3S-OH) = N[C@H](C(=O)O)[C@H](O)C(=O)O; Thr(4-Cl) = N[C@H](C(=O)O)[C@H](O)CCl; X1 = CCCCCCCCC[C@@H](O)CC(=O)*; dDab = NCC[C@@H](N)C(=O)O; Dab = NCC[C@H](N)C(=O)O; Dhb = C/C=C(\\N)C(=O)O"}
{"smiles": "C/C=C1\\NC(=O)[C@H](Cc2ccccc2)NC(=O)[C@H](CCCNC(=N)N)NC(=O)[C@H](CCN)NC(=O)[C@@H](CCN)NC(=O)[C@@H](CO)NC(=O)[C@@H](NC(=O)C[C@H](O)CCCCCCCCC)COC(=O)[C@H]([C@H](O)CCl)NC(=O)[C@H]([C@H](O)C(=O)O)NC1=O", "note": "[Syr-E, Syringomycin-E] (X1-S[dS][dDab][Dab]RF[Dhb][Asp(3S-OH)][Thr(4-Cl)]; ester 1-C)", "values": [{"measurement": "infection percentage vs lower Syr-E concentrations (0.5 to 3.0 μg/ml)", "setting": "[1]; Syr-E 9.0 μg/ml", "value": "further reduced the infection percentage significantly (P<0.01)"}, {"measurement": "infection percentage vs non-treated controls", "setting": "[1]; Syr-E 0.5, 1.0, 3.0 and 9.0 μg/ml", "value": "significantly (at least P<0.01) reduced the infection percentage"}, {"measurement": "OD Values", "setting": "[2]; Sample 1, Concentration 4.00000 (unit not given)", "value": 0.099}, {"measurement": "OD Values", "setting": "[2]; Sample 2, Concentration 2.00000 (unit not given)", "value": 0.097}, {"measurement": "OD Values", "setting": "[2]; Sample 3, Concentration 1.00000 (unit not given)", "value": 0.090}, {"measurement": "OD Values", "setting": "[2]; Sample 4, Concentration 0.50000 (unit not given)", "value": 0.089}, {"measurement": "OD Values", "setting": "[2]; Sample 5, Concentration 0.25000 (unit not given)", "value": 0.090}, {"measurement": "OD Values", "setting": "[2]; Sample 6, Concentration 0.12500 (unit not given)", "value": 0.102}, {"measurement": "OD Values", "setting": "[2]; Sample 7, Concentration 0.06250 (unit not given)", "value": 0.678}, {"measurement": "OD Values", "setting": "[2]; Sample 8, Concentration 0.03125 (unit not given)", "value": 0.664}, {"measurement": "OD Values", "setting": "[2]; Sample 9, Concentration 0.01563 (unit not given)", "value": 0.709}, {"measurement": "OD Values", "setting": "[2]; Sample 10, Concentration 0.00781 (unit not given)", "value": 0.652}, {"measurement": "OD Values", "setting": "[2]; Sample 11, Concentration 0.00391 (unit not given)", "value": 0.672}, {"measurement": "IC50", "setting": "[2]; amastigote assay", "value": 0.10115, "unit": "µg/mL"}]}
